{"source": "patent US8192962B2", "about": "“Processes for detecting toxic substances” (Daikin Industries, Ltd., priority 2001, dated 2012)", "system": "Unknown protein yeast genes", "assay": "DNA chip mRNA expression in yeast, unknown protein yeast genes (Table 1)", "type": "cell-based, Saccharomyces cerevisiae S288C", "outline": "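Ratios compare mRNA levels in stressed and control S. cerevisiae. Each toxicant was applied for two hours to log-phase cultures at 25° C. at a sub-lethal, growth-inhibiting level; fluorescent cDNA (Cy3- or Cy5-dUTP) was hybridized to a genome-wide yeast chip for over 12 h at 65° C.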", "data": [{"smiles": "CCCCCCCCCCCCOS(=O)(=O)[O-].[Na+]", "note": "[(18), sodium lauryl sulfate]", "values": [{"measurement": "The level of expressed mRNA in the presence of chemical substance/The level of expressed mRNA in the absence of chemical substance", "setting": "yeast gene YKL151C, incubated two hours with chemical substance", "result": 1.8}, {"measurement": "The level of expressed mRNA in the presence of chemical substance/The level of expressed mRNA in the absence of chemical substance", "setting": "yeast gene YKL153W, incubated two hours with chemical substance", "result": 1.3}, {"measurement": "The level of expressed mRNA in the presence of chemical substance/The level of expressed mRNA in the absence of chemical substance", "setting": "yeast gene YKL195W, incubated two hours with chemical substance", "result": 1.6}, {"measurement": "The level of expressed mRNA in the presence of chemical substance/The level of expressed mRNA in the absence of chemical substance", "setting": "yeast gene YKR091W, incubated two hours with chemical substance", "result": 1.3}, {"measurement": "The level of expressed mRNA in the presence of chemical substance/The level of expressed mRNA in the absence of chemical substance", "setting": "yeast gene YLR054C, incubated two hours with chemical substance", "result": 1.1}, {"measurement": "The level of expressed mRNA in the presence of chemical substance/The level of expressed mRNA in the absence of chemical substance", "setting": "yeast gene YLR149C, incubated two hours with chemical substance", "result": 3.0}, {"measurement": "The level of expressed mRNA in the presence of chemical substance/The level of expressed mRNA in the absence of chemical substance", "setting": "yeast gene YLR152C, incubated two hours with chemical substance", "result": 1.8}, {"measurement": "The level of expressed mRNA in the presence of chemical substance/The level of expressed mRNA in the absence of chemical substance", "setting": "yeast gene YLR194C, incubated two hours with chemical substance", "result": 0.9}, {"measurement": "The level of expressed mRNA in the presence of chemical substance/The level of expressed mRNA in the absence of chemical substance", "setting": "yeast gene YLR324W, incubated two hours with chemical substance", "result": 1.2}, {"measurement": "The level of expressed mRNA in the presence of chemical substance/The level of expressed mRNA in the absence of chemical substance", "setting": "yeast gene YLR350W, incubated two hours with chemical substance", "result": 1.1}, {"measurement": "The level of expressed mRNA in the presence of chemical substance/The level of expressed mRNA in the absence of chemical substance", "setting": "yeast gene YLR387C, incubated two hours with chemical substance", "result": 1.4}, {"measurement": "The level of expressed mRNA in the presence of chemical substance/The level of expressed mRNA in the absence of chemical substance", "setting": "yeast gene YLR460C", "result": 1.1}, {"measurement": "The level of expressed mRNA in the presence of chemical substance/The level of expressed mRNA in the absence of chemical substance", "setting": "yeast gene YML117W, incubated two hours with chemical substance", "result": 1.3}, {"measurement": "The level of expressed mRNA in the presence of chemical substance/The level of expressed mRNA in the absence of chemical substance", "setting": "yeast gene YMR009W, incubated two hours with chemical substance", "result": 2.5}, {"measurement": "The level of expressed mRNA in the presence of chemical substance/The level of expressed mRNA in the absence of chemical substance", "setting": "yeast gene YMR067C, incubated two hours with chemical substance", "result": 1.0}, {"measurement": "The level of expressed mRNA in the presence of chemical substance/The level of expressed mRNA in the absence of chemical substance", "setting": "yeast gene YMR090W", "result": 2.8}, {"measurement": "The level of expressed mRNA in the presence of chemical substance/The level of expressed mRNA in the absence of chemical substance", "setting": "yeast gene YMR095C, incubated two hours with chemical substance", "result": 1.0}, {"measurement": "The level of expressed mRNA in the presence of chemical substance/The level of expressed mRNA in the absence of chemical substance", "setting": "yeast gene YMR097C, incubated two hours with chemical substance", "result": 1.8}, {"measurement": "The level of expressed mRNA in the presence of chemical substance/The level of expressed mRNA in the absence of chemical substance", "setting": "yeast gene YMR102C, incubated two hours with chemical substance", "result": 2.8}, {"measurement": "The level of expressed mRNA in the presence of chemical substance/The level of expressed mRNA in the absence of chemical substance", "setting": "yeast gene YMR107W, incubated two hours with chemical substance", "result": 8.1}, {"measurement": "The level of expressed mRNA in the presence of chemical substance/The level of expressed mRNA in the absence of chemical substance", "setting": "yeast gene YMR180C, incubated two hours with chemical substance", "result": 1.7}, {"measurement": "The level of expressed mRNA in the presence of chemical substance/The level of expressed mRNA in the absence of chemical substance", "setting": "yeast gene YMR184W, incubated two hours with chemical substance", "result": 2.0}, {"measurement": "The level of expressed mRNA in the presence of chemical substance/The level of expressed mRNA in the absence of chemical substance", "setting": "yeast gene YMR191W, incubated two hours with chemical substance", "result": 2.1}, {"measurement": "The level of expressed mRNA in the presence of chemical substance/The level of expressed mRNA in the absence of chemical substance", "setting": "yeast gene YMR295C, incubated two hours with chemical substance", "result": 3.4}, {"measurement": "The level of expressed mRNA in the presence of chemical substance/The level of expressed mRNA in the absence of chemical substance", "setting": "yeast gene YMR315W", "result": 2.8}, {"measurement": "The level of expressed mRNA in the presence of chemical substance/The level of expressed mRNA in the absence of chemical substance", "setting": "yeast gene YMR316W, incubated two hours with chemical substance", "result": 6.4}, {"measurement": "The level of expressed mRNA in the presence of chemical substance/The level of expressed mRNA in the absence of chemical substance", "setting": "yeast gene YNL044W, incubated two hours with chemical substance", "result": 3.4}, {"measurement": "The level of expressed mRNA in the presence of chemical substance/The level of expressed mRNA in the absence of chemical substance", "setting": "yeast gene YNL074C, incubated two hours with chemical substance", "result": 1.3}, {"measurement": "The level of expressed mRNA in the presence of chemical substance/The level of expressed mRNA in the absence of chemical substance", "setting": "yeast gene YNL092W, incubated two hours with chemical substance", "result": 1.6}, {"measurement": "The level of expressed mRNA in the presence of chemical substance/The level of expressed mRNA in the absence of chemical substance", "setting": "yeast gene YNL115C, incubated two hours with chemical substance", "result": 2.6}, {"measurement": "The level of expressed mRNA in the presence of chemical substance/The level of expressed mRNA in the absence of chemical substance", "setting": "yeast gene YNL144C", "result": 2.8}, {"measurement": "The level of expressed mRNA in the presence of chemical substance/The level of expressed mRNA in the absence of chemical substance", "setting": "yeast gene YNL156C, incubated two hours with chemical substance", "result": 1.9}, {"measurement": "The level of expressed mRNA in the presence of chemical substance/The level of expressed mRNA in the absence of chemical substance", "setting": "yeast gene YNL234W, incubated two hours with chemical substance", "result": 1.0}, {"measurement": "The level of expressed mRNA in the presence of chemical substance/The level of expressed mRNA in the absence of chemical substance", "setting": "yeast gene YNL281W, incubated two hours with chemical substance", "result": 0.9}, {"measurement": "The level of expressed mRNA in the presence of chemical substance/The level of expressed mRNA in the absence of chemical substance", "setting": "yeast gene YNL305C, incubated two hours with chemical substance", "result": 1.6}, {"measurement": "The level of expressed mRNA in the presence of chemical substance/The level of expressed mRNA in the absence of chemical substance", "setting": "yeast gene YNR068C, incubated two hours with chemical substance", "result": 1.0}, {"measurement": "The level of expressed mRNA in the presence of chemical substance/The level of expressed mRNA in the absence of chemical substance", "setting": "yeast gene YOL032W, incubated two hours with chemical substance", "result": 1.8}, {"measurement": "The level of expressed mRNA in the presence of chemical substance/The level of expressed mRNA in the absence of chemical substance", "setting": "yeast gene YOL036W, incubated two hours with chemical substance", "result": 0.9}, {"measurement": "The level of expressed mRNA in the presence of chemical substance/The level of expressed mRNA in the absence of chemical substance", "setting": "yeast gene YOL047C, incubated two hours with chemical substance", "result": 1.0}, {"measurement": "The level of expressed mRNA in the presence of chemical substance/The level of expressed mRNA in the absence of chemical substance", "setting": "yeast gene YOL071W, incubated two hours with chemical substance", "result": 2.0}, {"measurement": "The level of expressed mRNA in the presence of chemical substance/The level of expressed mRNA in the absence of chemical substance", "setting": "yeast gene YOL082W, incubated two hours with chemical substance", "result": 2.5}, {"measurement": "The level of expressed mRNA in the presence of chemical substance/The level of expressed mRNA in the absence of chemical substance", "setting": "yeast gene YOL083W, incubated two hours with chemical substance", "result": 3.2}, {"measurement": "The level of expressed mRNA in the presence of chemical substance/The level of expressed mRNA in the absence of chemical substance", "setting": "yeast gene YOL117W, incubated two hours with chemical substance", "result": 1.4}, {"measurement": "The level of expressed mRNA in the presence of chemical substance/The level of expressed mRNA in the absence of chemical substance", "setting": "yeast gene YOL131W, incubated two hours with chemical substance", "result": 0.9}, {"measurement": "The level of expressed mRNA in the presence of chemical substance/The level of expressed mRNA in the absence of chemical substance", "setting": "yeast gene YOL150C", "result": 2.2}, {"measurement": "The level of expressed mRNA in the presence of chemical substance/The level of expressed mRNA in the absence of chemical substance", "setting": "yeast gene YOL162W, incubated two hours with chemical substance", "result": 0.9}, {"measurement": "The level of expressed mRNA in the presence of chemical substance/The level of expressed mRNA in the absence of chemical substance", "setting": "yeast gene YOR019W, incubated two hours with chemical substance", "result": 2.8}, {"measurement": "The level of expressed mRNA in the presence of chemical substance/The level of expressed mRNA in the absence of chemical substance", "setting": "yeast gene YOR197W, incubated two hours with chemical substance", "result": 1.5}, {"measurement": "The level of expressed mRNA in the presence of chemical substance/The level of expressed mRNA in the absence of chemical substance", "setting": "yeast gene YPL087W, incubated two hours with chemical substance", "result": 2.7}, {"measurement": "The level of expressed mRNA in the presence of chemical substance/The level of expressed mRNA in the absence of chemical substance", "setting": "yeast gene YPL196W, incubated two hours with chemical substance", "result": 2.3}, {"measurement": "The level of expressed mRNA in the presence of chemical substance/The level of expressed mRNA in the absence of chemical substance", "setting": "yeast gene YPL206C, incubated two hours with chemical substance", "result": 1.9}, {"measurement": "The level of expressed mRNA in the presence of chemical substance/The level of expressed mRNA in the absence of chemical substance", "setting": "yeast gene YPL222W, incubated two hours with chemical substance", "result": 0.9}, {"measurement": "The level of expressed mRNA in the presence of chemical substance/The level of expressed mRNA in the absence of chemical substance", "setting": "yeast gene YPR023C, incubated two hours with chemical substance", "result": 1.1}, {"measurement": "The level of expressed mRNA in the presence of chemical substance/The level of expressed mRNA in the absence of chemical substance", "setting": "yeast gene YPR151C, incubated two hours with chemical substance", "result": 1.4}]}]}
